Laboratory results from patent US11826467B2, “W/O/W microemulsions for ocular administration” (University of Tennessee Research Foundation, priority 2017, dated 2023).

Legend:
[1] = tested on: IOP; assay: Efficacy of other gabapentinoid drugs (IOP, viscous eye drops); assay type: in vivo; settings: 0.9% drug in 2% HPMC viscous eye drops, C57Bl/6 J mice
Source text: To determine if other members of the gabapentinoid drug family are also efficacious in reducing IOP, we compared the efficacy of 0.9% pregabalin, 0.9% 2-phenylglycine and 0.9% gabapentin in 2% HPMC viscous eye drops in C57Bl/6 J mice.
2-phenylglycine (FIG. 28) and gabapentin (FIG. 29) were not as efficacious as pregabalin although they both had maximum IOP reductions of −8% and areas under the curve of −14% hr.

[2] = tested on: IOP; assay: IOP lowering by pregabalin HPMC eye drops in rabbits; assay type: in vivo; settings: 0.9% pregabalin in HPMC eye drops, Dutch belted rabbits
Source text: FIG. 5: Pregabalin (0.9%) suspended in hydroxypropyl methylcellulose (HPMC) lowers IOP by 23% in Dutch belted rabbits (n=5).
(§1) It is also modestly present in the CM. Based upon these collective data, it appears that CACNA2D1 regulates IOP (FIG. 3). Pregabalin, or other gabapentinoid drugs, binds to the CACNA2D1 subunit of the calcium channel. The binding of the drug mitigates the flux of calcium through the α1 pore of the calcium channel, reducing the level of intracellular calcium. Since Cacna2d1 modulates IOP, pregabalin, a gabapentinoid drug with high specificity for CACNA2D1, was evaluated for its ability to affect IOP. […] The 1.2% pregabalin eye drops extended the duration of the IOP-lowering effect of pregabalin above that obtained with 0.6% pregabalin. Because there was no significant difference in the percent reduction of IOP between 0.9 and 1.2% pregabalin, we selected 0.9% as the minimal concentration required to produce the maximum reduction in IOP. Expanding this analysis to an additional species, we observed a similar IOP-lowering response (22.1±2.8%) in Dutch belted rabbits after instillation of 0.9% pregabalin eye drops (FIG. 5).

[3] = tested on: IOP; assay: IOP lowering by pregabalin HPMC eye drops in mice (dose response); assay type: in vivo, B6 mice
Source text: 0.9% is the minimum concentration that gives maximum effect (n=5).
as §1

[4] = cited from earlier work

Row | Structure (SMILES) | area under the curve [1] | maximum IOP reduction [1] | time at which IOP returned to baseline [1] | IOP-lowering response (IOP reduction) [2] | IOP-lowering response (IOP reduction) ([2]; listed as pregabalin) | IOP-lowering effect compared to control ([3]; drops containing 0.3% pregabalin suspended in HPMC, topical, B6 mice) | IOP reduction, dose dependence ([3]; pregabalin 0.3-1.2% suspended in HPMC, eye drops, mice) | minimal concentration required to produce the maximum reduction in IOP ([3]; pregabalin in HPMC eye drops, B6 mice, plateau, no significant difference 0.9 vs 1.2%) | solubility in water [4]
1 | NC(C(=O)O)c1ccccc1 (stereo not shown) [2-phenylglycine] | −14 % hr | −8% |  |  |  |  |  |  | 
2 | CC(C)C[C@H](CN)CC(=O)O [Pregabalin, pregabalin] | 65 % hr | 17.3% | ≤ 6 h | 23% | 22.1±2.8% | no IOP-lowering effect | dose-dependent manner | 0.9% | 
3 | NC(=O)c1ncn([C@@H]2O[C@H](CO)[C@@H](O)[C@H]2O)n1 [Ribavirin, 113-D-ribofuranosyl-1H-1,2,4-triazole-3-carboxamide] |  |  |  |  |  |  |  |  | freely soluble in water
4 | NCC1(CC(=O)O)CCCCC1 [gabapentin] | −14 % hr | −8% |  |  |  |  |  |  | 
